The text below walks through data of PubChem BioAssay (NCI).

Holding throughout (test): DTP human tumour cell line panel, 48 h
In test [1] the test system is BT-549 breast.
The test system of test [2] is CCRF-CEM leukemia.
Test [3] has as its system HCC-2998 colon.
The subject of test [4] is HCT-116 colon.
The test system of test [5] is HL-60(TB) leukemia.
In test [6] the test system is HS 578T breast.
Test [7] relates to IGROV1 ovarian.
The subject of test [8] is KM12 colon.
For test [9], the system named is MALME-3M melanoma.
Test [10] concerns MDA-N.
In test [11] the test system is NCI-H460 lung.
In test [12] the test system is OVCAR-3 ovarian.
Test [13] relates to OVCAR-4 ovarian.
In test [14] the test system is SK-MEL-5 melanoma.
Test [15] deals with SN12C renal.
In test [16] the test system is SW-620 colon.
For test [17], the system named is UACC-257 melanoma.
The subject of test [18] is UACC-62 melanoma.
Test [19] concerns COLO 205 colon.
Test [20] deals with TK-10 renal.

Molecules are shown by their SMILES.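 Where inhibition never reached the appropriate level, the endpoint shown equals the highest concentration tested. Otherwise, values were interpolated linearly from a five-concentration, 48-hour dose response in 96-well plates. TGI: concentration producing complete growth inhibition.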 Some results are limits rather than exact numbers.

`CCOC(=O)C1(C#N)C(=O)c2cc[n+](CC[n+]3ccc4c(c3)C(=O)C(C#N)(C(=O)OCC)C4=O)cc2C1=O` (stereo not given): the total growth inhibition concentration (TGI) in [1], in test [2], in test [3], in [4], in [5] and in [6] was above 100 µM in each case. The TGI in test [7], in [8], in test [9], in test [10], in test [11] and in test [12] was above 100 µM each time. For the same compound, the TGI is above 100 µM in test [13]; 38.5 µM in [14]; above 100 µM in test [15]; above 100 µM in [16]; above 100 µM in test [17]; above 100 µM in [18].
On to `CCCC1CC(=O)NC(=O)C1C(=O)OC(C)(C)C` (stereo not given), for which the TGI in [1], in test [19], in [3], in test [4], in test [5] and in test [6] was above 100 µM in each case. Besides, the concentration for total growth inhibition (TGI) in [7], in test [8], in [9], in test [10], in test [11] and in [12] was above 100 µM in each case. For the same compound, the TGI in test [13], in test [14], in test [15], in test [16], in [20] and in test [17] was above 100 µM in each case. For the same compound, the TGI in [18] was above 100 µM.
As for `Cc1cc(C)nc(NS(=O)(=O)c2ccc(Nc3c4ccccc4nc4c(C(=O)NC(CO)(CO)CO)cccc34)cc2)n1`, the TGI in [1] was 44.2 µM; in test [2] it was 58.9 µM; in test [19], 42.6 µM; in test [3], 36.1 µM; in [5] it was 97.9 µM; in test [6], above 100 µM. In addition, the TGI in test [7] was above 100 µM; in test [8] it was 36.4 µM; in [10], 68.8 µM; in [11], 35.3 µM; in test [12] it was above 100 µM; in test [13] it was above 100 µM. The TGI is 44.5 µM in [14]; above 100 µM in [15]; above 100 µM in [16]; 68.9 µM in test [20]; above 100 µM in test [17]; above 100 µM in test [18].
For `CC(C)(C)C1CCC2c3c([nH]c4ccccc34)C3C(=O)N(c4ccccc4Cl)C(=O)C3C2C1` (stereo not given), the TGI in test [1] was 61.6 µM; in [2] it was above 100 µM; in test [3] it was 11.2 µM; in [4] it was 14.3 µM; in test [5], 50.5 µM; in test [6], 35.3 µM. For the same compound, the TGI is above 100 µM in [7]; 37.1 µM in [9]; 29.3 µM in [10]; 15.8 µM in [11]; 47.3 µM in test [12]; 28.7 µM in test [14]. Also, the TGI in test [15] was 22.7 µM; in [16], 22.7 µM; in test [20] it was 51.3 µM; in [17] it was above 100 µM; in [18] it was 45.4 µM.
As for `COc1ccccc1C(=O)NO`, the TGI in [1], in test [2], in [19], in test [3], in test [4] and in [5] was above 100 µM in each case. Further, the concentration for total growth inhibition (TGI) in test [6], in [7], in test [8], in test [10], in test [11] and in test [12] was above 100 µM each time. Moreover, the TGI in test [13], in [14], in [15], in test [16], in [20] and in test [17] was above 100 µM in each case. In test [18], this compound gave a total growth inhibition concentration (TGI) above 100 µM.
As to `C=C1C[C@@H]2O[C@H]3[C@H]4[C@@H](C[C@@H](C)[C@@H](OC(C)=O)[C@H]42)[C@@H](C)CO[C@@]3(C)[C@H](OC(=O)CCCCCCC)C[C@H]1O`, the TGI is 32.9 µM in [1]; 38 µM in test [2]; 29.9 µM in test [19]; 30.9 µM in test [3]; 30.1 µM in test [4]; 44.1 µM in test [5]. Also, the TGI in test [6] worked out at 36.4 µM; in test [7], 36 µM; in test [8] it was 31.5 µM; in [10], 30.3 µM; in test [11] it was 30.1 µM; in test [12], 37.2 µM. Further, the TGI in test [13] was found to be 28.1 µM; in test [14], 28.8 µM; in test [15], 31.1 µM; in [16] it was 40.3 µM; in test [20], 32.8 µM; in test [17] it was 32.6 µM. The same compound showed a concentration for total growth inhibition (TGI) in test [18] of 31.4 µM.
Take `CC(=O)Nc1ccc(C(=O)NN2C(=O)CSC2c2ccc(O)cc2)cc1` (stereo not given): the TGI in test [1], in test [2], in test [19], in test [3], in test [4] and in test [5] was above 100 µM throughout. In addition, the TGI in test [6], in [7], in [8], in test [10], in test [11] and in [12] was above 100 µM in each case. Further, the TGI in [13], in test [14], in test [15], in test [16], in [20] and in test [17] was above 100 µM throughout. The compound also gave a TGI in test [18] above 100 µM.
As to `O=c1cc(NNCc2ccccc2)[nH]c(=O)[nH]1`, the TGI in test [1], in test [2], in [19], in test [3], in [5] and in [6] was above 100 µM in each case. The total growth inhibition concentration (TGI) in test [7], in test [8], in test [9], in test [10], in test [11] and in [12] was above 100 µM each time. In addition, the TGI in [13], in [14], in test [15], in [16], in [20] and in test [17] was above 100 µM each time.
Consider `C/C=C/C=C\C=C/C(O)C(C)C(CCC(C)C1OC(=O)C=CC1C)OP(=O)(O)O` (stereo not given), for which the TGI in test [1] came out at 0.591 µM; in test [2], 0.625 µM; in [19], 0.788 µM; in test [4], 0.717 µM; in test [5] it was 0.17 µM; in [6], 4.28 µM. For the same compound, the TGI in [7] turned out to be 0.694 µM; in test [8] it was 1.16 µM; in [9], 0.641 µM; in test [10] it was 1.32 µM; in [11] it was 1.76 µM; in [12], 0.393 µM. Besides, the TGI in [13] was 2.86 µM; in [14], 1.84 µM; in test [15], 1.11 µM; in [16] it was 1.67 µM; in test [20], 1.91 µM; in test [17], 3.02 µM. In addition, in [18], the TGI turned out to be 1.11 µM.
On to `O=S1(=O)c2ccccc2C(Nc2ccccc2)N1c1ccccc1` (stereo not given), for which the concentration for total growth inhibition (TGI) in test [1], in test [2], in test [3], in test [4], in test [5] and in [6] was above 100 µM each time. Moreover, the TGI in [7], in test [8], in [9], in test [10], in test [11] and in test [12] was above 100 µM in each case. Also, the TGI in test [13], in [14], in test [15], in test [16], in [20] and in [17] was above 100 µM in each case. The same compound had a TGI in test [18] above 100 µM.
Take `CC1(C)C2CCC1(C)C(OC(=O)/C=C/C(=O)OC1CC3CCC1(C)C3(C)C)C2` (stereo not given): the TGI in test [1] is above 100 µM; in test [2], 31.1 µM; in test [19] it was above 100 µM; in test [3], above 100 µM; in [4], above 100 µM; in test [5], 40.7 µM. In addition, the TGI in test [6], in [7], in [8], in [10], in [11] and in test [12] was above 100 µM throughout. Also, the TGI in test [13], in [14], in test [15], in [16], in test [20] and in test [17] was above 100 µM throughout. This compound returned a TGI in test [18] above 100 µM.
As to `CC(C)(C)C1CCC2c3c([nH]c4ccccc34)C3C(=O)N(c4ccccc4[N+](=O)[O-])C(=O)C3C2C1` (stereo not given), the TGI was found to be 68.5 µM in test [1]; 53.1 µM in [2]; 24.1 µM in [19]; 18.2 µM in test [3]; 22.7 µM in [4]; 27.5 µM in test [5]. The TGI in test [6] was found to be 49.5 µM; in test [7], 76 µM; in [9] it was 43 µM; in [10] it was 43.9 µM; in test [11], 27.6 µM; in test [12], 28.6 µM. For the same compound, the TGI stood at 26.7 µM in [14]; 64.3 µM in test [15]; 27 µM in test [16]; 43.3 µM in test [20]; 90.6 µM in test [17]; 28.2 µM in test [18].
Take `Oc1[nH]c(=S)[nH]c1/C=C1/C(c2ccccc2)=Nc2ccccc21`: the total growth inhibition concentration (TGI) came out at 28.6 µM in test [1]; 31.8 µM in test [19]; 36.9 µM in test [3]; 27.5 µM in test [4]; 26.1 µM in test [5]; 42.4 µM in [6]. Besides, the total growth inhibition concentration (TGI) in test [7] came out at 30.3 µM; in test [8] it was 29.3 µM; in [9] it was 26.4 µM; in test [10], 28.4 µM; in test [11], 27.6 µM; in [12], 30 µM. The concentration for total growth inhibition (TGI) in test [13] turned out to be 57.4 µM; in test [14] it was 25.8 µM; in test [15] it was 38.7 µM; in test [16] it was 31.9 µM; in test [20] it was 44.5 µM; in test [17] it was 29 µM. The same compound returned a TGI in [18] of 26.4 µM.
For `C/C=C(/C)C(=O)O[C@H]1[C@H]2[C@@H]([C@@H](OC(C)=O)[C@H](C)C(=O)[C@@]34C[C@@H](C)C(=O)[C@]3(/C=C(\C)[C@H]1OC(C)=O)O4)C2(C)C`, the TGI in [1] is 5.84 µM; in [2], 3.35 µM; in test [19] it was 5.32 µM; in test [3], 8.53 µM; in test [4], 5.99 µM; in test [5], 2.13 µM. In addition, the TGI is 19.7 µM in [6]; 9.96 µM in [7]; 17.8 µM in test [8]; 4.94 µM in test [10]; above 20 µM in test [11]; 7.01 µM in [12]. The TGI is 14.2 µM in [13]; 7.75 µM in test [14]; 5.33 µM in test [15]; 6.41 µM in test [16]; 7.61 µM in [20]; 10.9 µM in test [17]. In test [18], this compound registered a total growth inhibition concentration (TGI) of 6.99 µM.
